Data as given in patent publication EP0652290A1, “Method for regulation of NF-kB” (YISSUM RESEARCH DEVELOPMENT COMPANY OF THE HEBREW …, priority 1993, dated 1995).
Where a SMILES comes first, the peptide text is derived from it. The star is where a group is joined. Cbz = O=C(OCc1ccccc1)*; CH2Cl = ClC*

Columns and labels:
70Z/3 cells = experiment: Inhibition of protein synthesis in 70Z/3 cells; assay type: cell-based; settings: read-out: protein synthesis is inhibited
Procedure: 70Z/3 cells were treated with 25 µg/ml cycloheximide (Sigma). The protein synthesis inhibitor cycloheximide (CHX) activates NF-κB in 70Z/3 cells. At 10 µg/ml, protein synthesis is inhibited to 90% in 70Z/3 cells. Cell culture, extract preparation, EMSA, SDS-PAGE and Western blotting were as described above in Example 1. Densitometric scanning was done with a Howtek Scanmaster 3 and data analyzed by the software Quantity One Version 2.2.

IκBα [1] = experiment: IκBα level and stability by Western blot in 70Z/3 cells; assay type: cell-based
NF-κB [2] = experiment: NF-κB activation by EMSA, 70Z/3 cells stimulated with PMA, IL-1β or LPS; assay type: cell-based; settings: for IC90: 30 min pretreatment, stimulated by PMA, EMSA, read-out: IC90, 90% inhibitory concentration, activation of NF-κB, 70Z/3; for induction of NF-κB activity in response to PMA: 25 µM
IκBα [3] = experiment: IκBα phosphorylation and degradation by Western blot, Jurkat cells stimulated with PMA and Ca⁺⁺ ionophore; assay type: cell-based; settings: 25 µM TPCK or 400 ng/ml CsA 30 min, 100 µM PDTC 1 hour before PMA + Ca⁺⁺ ionophore
Procedure: Subcellular protein extracts were prepared essentially according to Beg, A.A. et al., supra. Following 20 minutes stimulation of Jurkat cells, cytosolic extracts (50 µg/point) were analyzed by Western blot, and nuclear extracts (5 µg/point) by EMSA, as described (Henkel, T., et al., Nature, 365:182-185, 1993).
Rabbit anti-IκBα was prepared against the GST-IκBα fusion protein by standard methods. The specifity of the antibodies was confirmed in competition assays using recombinant IκBα protein.
On the basis of the results in Example 3, phosphorylation of IκBα, in parallel to NF-κB activation, is induced according to the physiological requirements for T cell activation. Cell stimulation and extract preparation was as described above. […] Duration of Jurkat cell stimulation with PMA (10 ng/ml) and Ca⁺⁺ ionophore (1µM) was determined by Western blot analysis. […]
N-acetyl-Leu-Leu-Norleucinal (AcLLnL) is a reversible non-alkylating proteosome inhibitor not likely to disturb post-translation modification events. […] Anti-Rel A serum was a rabbit polyclonal antiserum prepared against the C-terminus portion of Rel A. In FIGURE 6a, cells were pretreated for 4 hours with 50 µg/ml AcLLnL, stimulated with PMA (10 ng/ml) and Ca⁺⁺ ionophore (1 µM) for the time intervals indicated and analyzed by Western blot. […]

NF-κB [4] = experiment: NF-κB activation by TNF-α in various other cell lines; assay type: cell-based; settings: various other cells lines
NF-κB [5] = experiment: NF-κB activation by EMSA, Jurkat cells stimulated with TNF-α; assay type: cell-based; settings: for IC90: Homo sapiens, Jurkat cells, 30 min pretreatment, stimulated by TNF-α, EMSA, read-out: IC90, 90% inhibitory concentration, activation of NF-κB, Jurkat; for induction of NF-κB DNA-binding activity in response to PMA and TNF-α: Jurkat (TNF-α) and 70Z/3 (PMA) cell cultures, even at high concentrations
Procedure: The functional significance of the inducible decay of IκBα for activation of NF-κB was tested by exposure of cell cultures to various protease inhibitors. Six distinct serine protease inhibitors with chymotrypsin-like specificity efficiently prevent the induction of NF-κB DNA-binding activity in response to PMA and TNF-α (Table 1). Constitutive DNA-binding activities, including Oct-1, were not affected and no significant cell death was observed by a dye-exclusion assay and phase-contrast microscopy at inhibitor concentrations preventing […] activation. Leupeptin, antipain and the trypsin inhibitor tosyl-Lys-methylester were not effective, even at high concentrations.

IκBα [6] = experiment: IκB degradation by Western blot in HeLa S3 or Hep G2 cells after TNFα, IL-1 or PMA; assay type: cell-based, Human; settings: HeLa S3 or Hep G2, 4 hours pretreatment, 20 minutes
Procedure: Human HeLa S3 or Hep G2 cells were pretreated for 4 hours with the indicated peptide aldehyde prior to simulation with either TNFα (20ng/ml), IL-1(20 ng/ml) or PMA (100 µg/ml). The cells were harvested 20 minutes after induction and the extent of IκB degradation was examined via Western blot analysis using IκB specific antisera. FIGURE 7 summarizes the ability of related peptide aldehydes to block IκB degradation induced by a variety of agents which activate NF-κB. (+++) indicates greater than 85% inhibition, (++) indicates greater than 60% inhibition and (-) indicates no inhibition of IκB degradation was observed.

NF-κB [7] = experiment: Dose response of NF-κB DNA binding (EMSA) in Hela cells stimulated with TNFα; assay type: cell-based
Procedure: Hela cells were pretreated for 5 hours with the indicated concentration of peptide aldehyde inhibitor or left untreated and then stimulated with TNFα (15ng/ml) for 20 minutes. The cells were then harvested for whole cell extract preparation. Extracts were analyzed for NF-κB DNA binding activity by electrophoretic mobility shift assay (EMSA) and relative IκBα protein levels were measured by Western blot analysis as shown in FIGURE 9.
IC₅₀ for ZLLF was 3.4 µM and 12.1 µM for AcLLnL.

NF-κB [8] = experiment: HIV-LTR-Luc reporter activity in Jurkat cells; assay type: cell-based; settings: stimulated 8 hours, PMA 10 ng/ml
Procedure: Jurkat cells were stimulated with the following reagents: (P), PMA (phorbol-12 myrislated 13-acetate), 10 ng/ml; (I), A23187 Ca⁺⁺ ionophore, 1µM; (3), anti-CD3 (OKT3), 5µg/ml; (28) anti-CD28 (monoclonal antibody 9.3), 3 µg/ml; (P/I), PMA + Ca⁺⁺ ionophore in IκBα transfected Jurkat cells; (NS) non-stimulated (0.1%, DMSO only).
The steps involved in the activation of NF-κB, include IκBα elimination through the appearance of the nuclear DNA binding activity, and the transcriptional activity. NF-κB activation was measured through the reporter activity of the HIV-LTR promoter, which is largely controlled by NF-κB in conjunction with the HIV Tat protein (Nabel, G., et al., Nature, 326:711-713, 1987). Jurkat cells were stimulated with the following reagents: (P), PMA (phorbol-12 myrislated 13-acetate), 10 ng/ml; (I), A23187 Ca⁺⁺ ionophore, 1µM; (3), anti-CD3 (OKT3), 5µg/ml; (28) anti-CD28 (monoclonal antibody 9.3), 3 µg/ml; (P/I), PMA + Ca⁺⁺ ionophore in IκBα transfected Jurkat cells; (NS) non-stimulated (0.1%, DMSO only). Jurkat cells were transfected by electroporation (Su, B., et al., supra) with 1 µg HIV-LTR-LUC (Israel, S., et al., Gene, 104:139-145, 1991) and 4 µg PBC-TAT. […] Following 30 hours transfection, the cells were stimulated for 8 hours and luciferase activity was determined using the Promega luciferase assay system.

C[C@@H]1C[C@@H]([C@H](O)CC2CC(=O)NC(=O)C2)C(=O)[C@@H](C)C1 [CHX, cycloheximide]
inhibition at 10 µg/mL (70Z/3 cells): 90%
half-life of IκBα (IκBα [1]; CHX-treated 70Z/3 cells, 25 µg/ml, no PMA): approximately 138 minutes
DNA binding of NF-κB (NF-κB [2]; 1 hour treatment of 70Z/3 cells with CHX, no PMA): induced only weakly

CC(C)C[C@H](NC(=O)OCc1ccccc1)C(=O)N[C@@H](Cc1ccc(O)cc1)C(=O)CCl [Benzyloxycarbonyl-Leu-Tyr-chloromethylketone] (Cbz-Leu-Tyr-CH2Cl)
IC90 (NF-κB [2]; 70Z/3 cells): 10 µM

Cc1ccc(S(=O)(=O)N[C@@H](Cc2ccccc2)C(=O)CCl)cc1 [TPCK, Tosyl-Phe-chloromethylketone]
inducible degradation of IκBα (IκBα [3]): blocked both the inducible modification and degradation of IκBα completely
inducible modification (phosphorylation) of IκBα (IκBα [3]): blocked both the inducible modification and degradation of IκBα completely
activation of NF-κB by TNF-α (NF-κB [4]): prevented
IC90 (NF-κB [5]): 20 µM
decay of IκB-α in response to PMA (IκBα [1]; 25 µM, 1 hour pretreatment, 70Z/3 cells): fully inhibited
induction of NF-κB activity in response to PMA (NF-κB [2]; 70Z/3 cells): fully inhibited
IC90 (NF-κB [2]; 70Z/3 cells): 20 µM
NF-κB activity when added after stimulation (NF-κB [2]; 70Z/3 cells, added after stimulation with PMA, IL-1 or LPS): did not strongly interfere
activation of NF-κB by IL-1β and LPS (NF-κB [2]; 70Z/3 cells, treated 10 minutes before stimulation): prevented

CC(=O)NC(Cc1ccccc1)C(=O)Oc1ccc2ccccc2c1 (racemic) [N-Acetyl-DL-Phe-β-Naphthylester (APNE), N-Acetyl-DL-Phe-β-Naphthylester]
IC90 (NF-κB [5]): 200 µM

COC(=O)C(CCCCN)NS(=O)(=O)c1ccc(C)cc1.Cl (stereo not drawn) [tosyl-Lys-methylester]
induction of NF-κB DNA-binding activity in response to PMA and TNF-α (NF-κB [5]): not effective

Cc1ccc(S(=O)(=O)NC(CCCCN)C(=O)CCl)cc1 (stereo not drawn) [TLCK, Tosyl-Lys-chloromethylketone]
IC90 (NF-κB [5]): 100 µM
induction of NF-κB activity in response to PMA (NF-κB [2]; 70Z/3 cells): could not prevent
IC90 (NF-κB [2]; 70Z/3 cells): 100 µM

CC(=O)N[C@@H](CC(C)C)C(=O)N[C@@H](CC(C)C)C(=O)N[C@H](C=O)CCCNC(=N)N [Leupeptin]
induction of NF-κB DNA-binding activity in response to PMA and TNF-α (NF-κB [5]): not effective

CCOC(=O)[C@H](Cc1ccc(O)cc1)NC(=O)c1ccccc1 [N-Benzoyl-L-Tyr-ethylester (BTEE), N-Benzoyl-L-Tyr-ethylester]
IC90 (NF-κB [5]): 1000 µM

benzyloxycarbonyl-Leu-Leu-Phenylalaninal [ZLLF]
rank as inhibitor of proteolysis of IκBα (IκBα [6]): the most potent inhibitor
TNFα induced NF-κB activity (NF-κB [7]; 1µM to 200 µM, 5 hours pretreatment, TNFα 15ng/ml 20 minutes): inhibited TNFα induced NF-κB activity in a dose-dependent manner
IC50 (NF-κB [7]; densitometric scanning of the EMSA and Western blots, TNFα, read-out: IC₅₀): 3.4 µM

CCCCCCCCCCCCCC(=O)O[C@@H]1[C@@H](C)[C@@]2(O)[C@@H](C=C(CO)C[C@]3(O)C(=O)C(C)=C[C@@H]23)[C@@H]2C(C)(C)[C@]12OC(C)=O [PMA, phorbol 12-myristate 13-acetate]
enhancement of reporter activity (HIV-LTR-Luc) over basal (NF-κB [8]): two-fold
time after stimulation until most of the IκBα had decayed (IκBα [1]; 70Z/3 cells): ≤ 5 min
half-life of IκBα (IκBα [1]; protein synthesis-arrested (CHX) 70Z/3 cells stimulated with PMA, phase of fastest decay): 1.5 min

O=c1oc(Cl)c(Cl)c2ccccc12 [3,4-Dichloroisocoumarin]
IC90 (NF-κB [5]): 20 µM
